The structures appear in SMILES notation. “And” between values parts separate entries of the source, which are not always exact repeats. Identical values can stand only once. Toxic doses and inconclusive results are not listed.

This test relates to P388 leukemia ip, CD2F1 mice, survival T/C. Description: NCI In Vivo Anticancer Drug Screen. Data for tumor model P388 Leukemia (intraperitoneal) in CD2F1 (CDF1) mice. The following applies: endpoint: median survival time, higher = longer survival. In outline: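 Mice carrying the transplanted tumor received test compound or vehicle. Survival was recorded in each group, and the value is the treated-group measurement divided by that of the vehicle-treated control group.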

Where [1] appears, read: dose: 60.0 mg/kg/injection, schedule: Q01DX005 (ip), vehicle: saline with Tween-80.
[2] abbreviates: dose: 120.0 mg/kg/injection, schedule: Q01DX005 (ip), vehicle: saline with Tween-80.
The mark [3] stands for this setting: dose: 240.0 mg/kg/injection, schedule: Q01DX005 (ip), vehicle: saline with Tween-80.
[4] abbreviates: dose: 25.0 mg/kg/injection, schedule: Q04DX003 (ip), vehicle: saline.
[5] abbreviates: dose: 50.0 mg/kg/injection, schedule: Q04DX003 (ip), vehicle: saline.
[6] abbreviates: dose: 100.0 mg/kg/injection, schedule: Q04DX003 (ip), vehicle: saline.
Where [7] appears, read: dose: 50.0 mg/kg/injection, schedule: Q01DX009 (ip), vehicle: saline with Tween-80.
Setting [8] is: dose: 100.0 mg/kg/injection, schedule: Q01DX009 (ip), vehicle: saline with Tween-80.
[9] abbreviates: dose: 200.0 mg/kg/injection, schedule: Q01DX009 (ip), vehicle: saline with Tween-80.
Where [10] appears, read: dose: 50.0 mg/kg/injection, schedule: Q01DX009 (ip), vehicle: Klucel (hydroxypropylcellulose) (HPC).
Setting [11] is: dose: 100.0 mg/kg/injection, schedule: Q01DX009 (ip), vehicle: Klucel (hydroxypropylcellulose) (HPC).
The mark [12] stands for this setting: dose: 200.0 mg/kg/injection, schedule: Q01DX009 (ip), vehicle: Klucel (hydroxypropylcellulose) (HPC).
[13] abbreviates: dose: 50.0 mg/kg/injection, schedule: Q01DX005 (ip), vehicle: saline.
The mark [14] stands for this setting: dose: 100.0 mg/kg/injection, schedule: Q01DX005 (ip), vehicle: saline.
The mark [15] stands for this setting: dose: 50.0 mg/kg/injection, schedule: Q01DX005 (ip), vehicle: saline with Tween-80.

With `COc1cccc(C(c2cc3c(cc2O)OCO3)N2CCOCC2)c1O` (stereo not drawn), the T/C was 114 % of control (2×) and 116 % of control under setting [1]; 108 % of control and 116 % of control and 122 % of control under setting [2]; 109 % of control and 112 % of control under setting [3]; 118 % of control (dose: 480.0 mg/kg/injection, schedule: Q01DX005 (ip), vehicle: saline with Tween-80).

For `Cc1ccc(S(=O)(=O)N=S(C)(=O)CCCl)cc1` (stereo not drawn), the T/C by setting is: under setting [4], 100 % of control; under setting [5], 107 % of control; under setting [6], 100 % of control; (dose: 100.0 mg/kg/injection, schedule: Q04DX003 (ip), vehicle: suspension in saline) 94 % of control.

With `COC(=O)/C(C)=C\n1ccccc1=O`, the T/C reads like this: (dose: 60.0 mg/kg/injection, schedule: Q01DX005 (ip), vehicle: saline) 97 % of control; (dose: 120.0 mg/kg/injection, schedule: Q01DX005 (ip), vehicle: saline) 99 % of control; (dose: 240.0 mg/kg/injection, schedule: Q01DX005 (ip), vehicle: saline) 98 % of control.

On to `OCCC[N+]12CCCN1CCC2`, for which the T/C was 98 % of control (dose: 50.0 mg/kg/injection, schedule: Q01DX009 (ip), vehicle: saline) and 104 % of control (dose: 100.0 mg/kg/injection, schedule: Q01DX009 (ip), vehicle: saline).

Take `C[n+]1cccc(NC(=O)c2ccc(NC(=O)c3ccc(C(=O)Nc4ccc(NC(=N)N)cc4)cc3)cc2)c1`: the T/C runs as follows: (dose: 4.7 mg/kg/injection, schedule: Q01DX009 (ip), vehicle: saline) 110 % of control; (dose: 9.4 mg/kg/injection, schedule: Q01DX009 (ip), vehicle: saline) 90 % of control; (dose: 12.5 mg/kg/injection, schedule: Q04DX003 (ip), vehicle: saline) 195 % of control.

With `CCCCn1c(O)c(/C=C2/C=Nc3ccccc32)sc1=O`, the T/C is 95 % of control under setting [7], 95 % of control under setting [8] and 97 % of control under setting [9].

In the case of `Cc1nc(N(C)C)oc(=O)c1Cc1ccccc1`, the T/C under setting [1] is 102 % of control, the T/C under setting [2] was 100 % of control and the T/C under setting [3] is 100 % of control.

`O=C(O)CSc1nc(-c2nc3ccccc3s2)cn1-c1ccc(F)cc1`: the T/C runs as follows: under setting [10], 106 % of control; under setting [11], 106 % of control; under setting [12], 100 % of control.

In the case of `C=C1N=NN(c2ccc([N+](=O)[O-])cc2)C1N1CCOCC1` (stereo not drawn), the T/C by setting is: (dose: 60.0 mg/kg/injection, schedule: Q01DX005 (ip), vehicle: Klucel (hydroxypropylcellulose) (HPC)) 100 % of control; (dose: 120.0 mg/kg/injection, schedule: Q01DX005 (ip), vehicle: Klucel (hydroxypropylcellulose) (HPC)) 101 % of control; (dose: 240.0 mg/kg/injection, schedule: Q01DX005 (ip), vehicle: Klucel (hydroxypropylcellulose) (HPC)) 105 % of control.

As for `O=[N+]([O-])c1ccc(S(=O)(=O)/N=C/c2ccccc2)cc1`, the T/C was 96 % of control under setting [7], 98 % of control under setting [8] and 95 % of control under setting [9].

Turning to `C=CCC(N)C(=O)O` (stereo not drawn), the T/C runs as follows: under setting [13], 103 % of control; under setting [14], 97 % of control.

Turning to `CN1CCN(CC(O)Cn2c(=O)c3c(nc(N4CCN(C)CC4)n3C)n(C)c2=O)CC1` (stereo not drawn), the T/C under setting [10] was 87 % of control, the T/C under setting [11] is 102 % of control and the T/C under setting [12] is 105 % of control.

As for `CC(=O)NC(C=O)OCC=O` (stereo not drawn), the T/C reads like this: (dose: 44.0 mg/kg/injection, schedule: Q01DX005 (ip), vehicle: water) 120 % of control; (dose: 66.0 mg/kg/injection, schedule: Q01DX005 (ip), vehicle: water) 121 % of control; (dose: 150.0 mg/kg/injection, schedule: Q01DX005 (ip), vehicle: water) 110 % of control.

In the case of `c1ccc2oc(C34OC5CC(CC(C5)O3)O4)nc2c1`, the T/C (dose: 100.0 mg/kg/injection, schedule: Q01DX001 (ip), vehicle: saline with Tween-80) was 101 % of control; the T/C (dose: 200.0 mg/kg/injection, schedule: Q01DX001 (ip), vehicle: saline with Tween-80) was 99 % of control; the T/C (dose: 400.0 mg/kg/injection, schedule: Q01DX001 (ip), vehicle: saline with Tween-80) was 100 % of control.

On to `NC(=O)CCn1cnc2c(N)ncnc21`, for which the T/C under setting [4] was 100 % of control, the T/C under setting [5] is 100 % of control and the T/C under setting [6] was 99 % of control.

For `Nc1nc(Cl)cc(Cl)n1`, the T/C is 94 % of control (dose: 12.5 mg/kg/injection, schedule: Q01DX009 (ip), vehicle: Klucel (hydroxypropylcellulose) (HPC)); 107 % of control (dose: 25.0 mg/kg/injection, schedule: Q01DX009 (ip), vehicle: Klucel (hydroxypropylcellulose) (HPC)); 108 % of control under setting [10]; 99 % of control under setting [11].

For the compound `O=C1C=CC(=NS(=O)(=O)c2ccccc2)C=C1`, the T/C runs as follows: (dose: 12.5 mg/kg/injection, schedule: Q01DX001 (ip), vehicle: other) 100 % of control; (dose: 25.0 mg/kg/injection, schedule: Q01DX001 (ip), vehicle: other) 100 % of control; (dose: 50.0 mg/kg/injection, schedule: Q01DX001 (ip), vehicle: other) 100 % of control.

For `CC(=O)C1CCN(CN2CCC(C(C)=O)CC2)CC1`, the T/C is 101 % of control (dose: 25.0 mg/kg/injection, schedule: Q01DX005 (ip), vehicle: saline); 110 % of control under setting [13]; 97 % of control under setting [14].

Turning to `C#CCn1c2c(c3ccccc3c1=O)C(=O)c1ccccc1-2`, the T/C under setting [15] was 88 % of control; the T/C (dose: 100.0 mg/kg/injection, schedule: Q01DX005 (ip), vehicle: saline with Tween-80) was 88 % of control; the T/C (dose: 200.0 mg/kg/injection, schedule: Q01DX005 (ip), vehicle: saline with Tween-80) was 101 % of control.

As to `CN(CC(=O)C(O)C(O)C(O)CO)c1ccccc1` (stereo not drawn), the T/C by setting is: under setting [13], 99 % of control; under setting [14], 100 % of control; (dose: 200.0 mg/kg/injection, schedule: Q01DX005 (ip), vehicle: saline) 100 % of control.

With `C/C(=N\NC(=S)N1CCC(c2ccccc2)CC1)c1ncccn1`, the T/C reads like this: (dose: 12.5 mg/kg/injection, schedule: Q01DX005 (ip), vehicle: saline with Tween-80) 110 % of control; under setting [15], 169 % of control.

Regarding `O=C1NNC(=O)c2ccccc2C(=O)S1`, the T/C is 102 % of control under setting [1], 101 % of control under setting [2] and 97 % of control under setting [3].

Take `C/C=C(/C)C(=O)O[C@@H]1c2c(C)coc2C(=O)[C@@]2(OC(C)=O)CCC[C@@](C)(O)[C@@]12C`: the T/C by setting is: (dose: 3.25 mg/kg/injection, schedule: Q01DX005 (ip), vehicle: saline + alcohol) 110 % of control; (dose: 6.5 mg/kg/injection, schedule: Q01DX005 (ip), vehicle: saline + alcohol) 96 % of control; (dose: 13.0 mg/kg/injection, schedule: Q01DX005 (ip), vehicle: saline + alcohol) 91 % of control; (dose: 26.0 mg/kg/injection, schedule: Q01DX005 (ip), vehicle: saline + alcohol) 93 % of control.

In the case of `O=C1C(Cl)=C(Cl)C(=O)N1c1ccc(Br)cc1Br`, the T/C was 105 % of control (dose: 100.0 mg/kg/injection, schedule: Q04DX002 (ip), vehicle: Klucel (hydroxypropylcellulose) (HPC)); 105 % of control (dose: 200.0 mg/kg/injection, schedule: Q04DX002 (ip), vehicle: Klucel (hydroxypropylcellulose) (HPC)); 100 % of control (dose: 400.0 mg/kg/injection, schedule: Q04DX002 (ip), vehicle: Klucel (hydroxypropylcellulose) (HPC)).

Regarding `Cc1ccc(O)c(N=Nc2c(O)cc(S(=O)(=O)O)c3ccccc23)c1`, the T/C by setting is: (dose: 50.0 mg/kg/injection, schedule: Q01DX009 (ip), vehicle: suspension in saline) 100 % of control; (dose: 100.0 mg/kg/injection, schedule: Q01DX009 (ip), vehicle: suspension in saline) 95 % of control.

Regarding `CCCNC(=O)CCC(NS(=O)(=O)c1ccc(NC(C)=O)cc1)C(=O)O` (stereo not drawn), the T/C was 100 % of control (dose: 50.0 mg/kg/injection, schedule: Q01DX005 (ip), vehicle: Klucel (hydroxypropylcellulose) (HPC)); 98 % of control (dose: 100.0 mg/kg/injection, schedule: Q01DX005 (ip), vehicle: Klucel (hydroxypropylcellulose) (HPC)); 100 % of control (dose: 200.0 mg/kg/injection, schedule: Q01DX005 (ip), vehicle: Klucel (hydroxypropylcellulose) (HPC)).

The values above are taken from PubChem BioAssay AID330 (DTP/NCI, 2004).
